Measurements as given in patent US8389739B1, “Modulators of retinoid-related orphan receptor gamma” (Orphagen Pharmaceuticals, priority 2006, dated 2013).
Like-named read-outs stand apart in the source and are kept apart here. Blank lines part the entries; values can stand above or below the molecule they belong to.

How the values were obtained:
mRORγ LBD = biological target: T1, mRORγ LBD (Mus musculus, UniProt P51450); experiment: Biochemical assay, coregulatory peptide recruitment to GST-RORγ LBD (FRET)
T1 construct: made in house; host or cells: Sf9 insect cells, baculovirus; cleared lysate used directly
T1 sequence (P51450 251-516): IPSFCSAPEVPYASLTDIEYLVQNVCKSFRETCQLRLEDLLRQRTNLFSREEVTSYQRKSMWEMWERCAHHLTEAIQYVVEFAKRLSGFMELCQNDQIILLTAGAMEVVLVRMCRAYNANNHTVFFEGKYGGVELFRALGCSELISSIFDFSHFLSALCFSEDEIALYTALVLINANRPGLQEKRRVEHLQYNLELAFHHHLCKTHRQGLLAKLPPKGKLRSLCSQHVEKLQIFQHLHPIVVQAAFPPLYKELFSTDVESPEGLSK
Excerpt: GST-RORγ was generated by subcloning the RORγ-LBD into pET-41a, a vector which expresses GST fusion proteins in bacteria.
The cloning steps for GST-RORγ were as follows. The mRORγ LBD was excised from Gal4-mRORγ (see above for cloning steps) at BamHI and HindIII sites of Sequence 1 and cloned into the corresponding sites of pET-41a(+) (EMD Biosciences, San Diego, Calif.). A GST-mRORγ fragment was then excised from pET-41a(+) at XbaI and XhoI sites and cloned into a pcDNA3.1vector (Invitrogen, Carlsbad, Calif.) restricted at NheI and XhoI sites. Plasmid GST-mRORγ-pcDNA3.1 was used as a PCR template to generate a GST-mRORγ fragment that was later cloned into pENTR/D-TOPO vector (Invitrogen, Carlsbad, Calif.) by standard cloning techniques recommended by the manufacturer of the vector. The nucleotide sequence of GST-mRORγ is shown below:
For baculoviral expression of RORγ, the cDNA fragment of GST-RORγ— LBD, was subcloned from pET-41a into the pENTR/D-TOPO vector using a commercially-available kit (BaculoDirect, Invitrogen). Briefly, GST-RORγ carried by pENTR/D-TOPO was transfected into mono-layer Sf9 cells (8×10^5/well in 6-well plates) by Cellfectin (Invitrogen). Sf9 cells were incubated at 27° C. in a non-humidified incubator for 72 hours. Cell media was collected as P1 viral stock and used to further infect Sf9 cells to generate P2 and P3 virus. […] A plaque assay was performed to determine the titer of P3 virus and to isolate single plaques. P4 virus was generated from a single plaque and propagated on a larger scale.
Adherent SF9 cells were infected with baculovirus carrying GST-RORγ and were cultured for 72 hours. Sf9 cell were then subject to a brief sonication in a lysis buffer (20 mM phosphate, pH 6.8, 50 mM KCl, 50 mM NaCl, 0.5 mM EDTA, 50% glycerol, 0.001% NP-40 and 1 mM DTT) and centrifuged at 3000 rpm for 15 minutes. […] Cleared cell lysate was stored at −70° C. and is directly utilized in the coregulatory peptide recruitment assay.
The labeled probes anti-GST-APC and SA-RPE were purchased from Prozyme (San Leandro, Calif.). Compounds were added directly from a DMSO solution to a final concentration of 1-2% DMSO. Fluorescence was measured on a Wallac Victor 2 V plate reader equipped with a 670/40 nm filter (Omega Optical, Brattleboro, Vt.) for APC emission (Channel A) and a 600/25 bandpass filter for monitoring the RPE emission (Channel B).

[1] = biological target: T2, mLXRα (Liver X receptor alpha) (Mus musculus, UniProt Q9Z0Y9); experiment: Transcriptional assay of LXRα (Gal4-LXRα hybrid); format: cell-based
T2 construct: 172-455; expressed in transfected cells; host or cells: CHO cells, transient transfection
T2 sequence (Q9Z0Y9 172-445 limits assumed): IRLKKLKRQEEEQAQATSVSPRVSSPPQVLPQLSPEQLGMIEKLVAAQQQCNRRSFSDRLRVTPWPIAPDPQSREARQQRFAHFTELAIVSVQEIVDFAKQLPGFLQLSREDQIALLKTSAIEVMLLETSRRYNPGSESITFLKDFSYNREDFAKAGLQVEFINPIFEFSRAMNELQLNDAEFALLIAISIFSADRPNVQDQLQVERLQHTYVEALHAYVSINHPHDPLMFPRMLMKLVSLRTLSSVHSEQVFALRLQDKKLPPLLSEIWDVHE
Method: A firefly luciferase reporter gene for Gal4 DBD hybrid receptors, such as Gal4-RORγ, contains five copies of the Gal4 17-mer response element in its promoter and the coding sequence for firefly luciferase (pG5-luc, Promega). CHO (Chinese Hamster Ovary) cells were cultured in Ham's F12 medium supplemented with 10% fetal calf serum (Gemini Biologicals), 10 μg/ml penicillin and streptomycin, and were maintained in a humidified 37° C. incubator (Thermo Electron, Steri-Cycle) with 5% CO2. 24 hours before transfection, cells were plated in T175 flasks (5×10^6 cells/flask) or T75 flasks (1.7×10^6 cells/flask). Transient transfection of CHO cells was performed using TransIT-CHO reagents (Minis, Madison, Wis.) with a mixing ratio of 2:6:1 between plasmid DNA (in μg), TransIT-CHO (in μl) and CHO-mojo (in μl).
Plates are maintained at 37° C. in a humidified atmosphere with 7% CO2 overnight. Four (4) hours after cell seeding, compounds dissolved in DMSO at 10 mM were added to cells at final concentrations of 20 micromolar (μM) to 20 nanomolar (nM) in 0.2% DMSO in triplicate plates. Approximately 40 hours later, cytotoxicity in the assay well was characterized by addition of the dye resazurin (O'Brien, Wilson et al. 2000) to a final concentration of 3 μM. […] Percent viability was determined as 2 hour fluorescence, minus background at t=0 hours, normalized to DMSO controls. For detection of luciferase activity, media was removed from plates after the measurement of resazurin conversion, and SteadyLite luciferase reagent (Perkin-Elmer) was added (30 μl/well). Luminescence is detected with a Victor 2-V plate reader (Perkin-Elmer) and normalized to luciferase activity of DMSO control wells alone.
A transcriptional assay for LXRα, using a Gal4-LXRα hybrid, was implemented in order to compare RORγ ligand potencies. In addition to LXRα, transcriptional assays for a number of other major nuclear receptors were developed.

[2] = tested on: TH1 cell differentiation from naïve CD4+ T cells; experiment: Differentiation of naïve CD4+ T cells with IL-12 (Th-1 protocol), IFN-γ staining by FACS; format: cell-based, mouse; settings: for effect on TH1 cell differentiation: in the presence of IL-12
[3] = Table 4A, peptide K1, no agonist present, medians of two or more assays, unit inferred, read-out: EC50 Biochemical
[4] = Table 6, read-out: Potency (EC50) at mLXRα
[5] = Table 9, 3 μM (combination 3 μM each), 10 ng/ml IL-12, DMSO 36.3%

Structure (SMILES): COC(C)CCC(C)C1CCC2C3CC(O)C4CC(O)CCC4(C)C3CCC12C (stereo not shown) [OR-12872, 17-(4-Methoxy-1-methyl-pentyl)-10,13-dimethyl-hexadecahydro-cyclopenta[a]phenanthrene-3,6-diol]
EC50 (mRORγ LBD; Table 2, agonists, biotinylated peptide K, 50% of estimated maximum FRET signal, read-out: EC50 in micromolar at mRORγ Biochemical): 0.052 µM
EC50 (mRORγ LBD; agonist, read-out: potency in the biochemical assay): < 0.1 µM
EC50 [1, 4]: > 10000 nM
Cell Frequency (%) Th-1 Protocol IFN-γ^+ [2, 5]: 41.4%
Cell Frequency (%) Th-1 Protocol IFN-γ^+ ([2]; Table 10, 1 μM, DMSO vehicle 29.7%): 30.8%
effect on TH1 cell differentiation ([2]; 3 μM): Neither 3 μM OR-1050 nor 3 μM OR-12872 had an effect on the frequency of TH1 cell differentiation

Structure (SMILES): C[C@@H]1CC[C@@]2(OC1)O[C@H]1C[C@H]3[C@@H]4CC[C@H]5C[C@@H](O)CC[C@]5(C)[C@H]4C[C@@H](O)[C@]3(C)[C@H]1[C@@H]2C [OR-885, 5α,20α, 22α, 25D-SPIROSTAN-3β, 12β-DIOL]
EC50 (mRORγ LBD): 2.5 µM
EC50 [1]: > 10000 nM
Cell Frequency (%) Th-1 Protocol IFN-γ^+ ([2]; Table 10, 3 μM, DMSO vehicle 29.7%): 34.2%

Structure (SMILES): CC(=O)O[C@H]1CC[C@@]2(C)C(CC[C@]3(C)C2C(=O)C=C2C4[C@@H](C)[C@H](C)CC[C@]4(C(=O)O)CC[C@]23C)C1(C)C (stereo in doubt) [OR-13571, 10-Acetoxy-1,2,6a,6b,9,9,12a-heptamethyl-13-oxo-1,3,4,5,6,6a,6b,7,8,8a,9,10,11,12,12a,12b,13,14b-octadecahydro-2H-picene-4a-carboxylic acid]
EC50 (mRORγ LBD; [3]): 1.2 µM
EC50 [1, 4]: > 10000 nM

Further lines, with some results ahead:

EC50 (mRORγ LBD; [3]): 4.5 µM
EC50 [1, 4]: > 10000 nM
Structure (SMILES): COc1c(C=NNc2nc(N3CCCCC3)nc(N3CCCCC3)n2)cccc1[N+](=O)[O-] [OR-2161, N-(4,6-Di-piperidin-1-yl-[1,3,5]triazin-2-yl)-N′-(2-methoxy-3-nitro-benzylidene)-hydrazine]

Emax [1]: 100%
EC50 [1, 4]: 100 to 1000 nM
EC50 ([1]; Table 7, no unit printed for this column (b114 gives 1.5 μM for OR-1050), read-out: Transcriptional Assay of LXRα EC50): 140 nM
Efficacy at mLXRα ([1]; activity of standard ligand at 20 μM): 120X
Structure (SMILES): O=S(=O)(c1ccccc1)N(CC(F)(F)F)c1ccc(C(O)(C(F)(F)F)C(F)(F)F)cc1 [Compound T0901317, N-(2,2,2-Trifluoro-ethyl)-N-[4-(2,2,2-trifluoro-1-hydroxy-1-trifluoromethyl-ethyl)-phenyl]-benzenesulfonamide, reference compound]

EC50 (mRORγ LBD; Table 1, mRORγ and peptide K1, read-out: Assay EC50 in micromolar at mRORγ Biochemical): 0.9 µM
EC50 (mRORγ LBD; Table 7, taken from Table 1 (peptide K1), read-out: Assay EC50 in micromolar at mRORγ Biochemical): 0.9 µM
Emax [1]: > 80%
potency in repression of RORγ transcription relative to induction of LXR transcription [1]: approximately 5 fold
EC50 [1, 4]: 1000 to 10000 nM
specificity for RORγ versus LXRα ([1]; comparison of transcriptional assays for RORγ and LXRα (Table 7)): more specific for RORγ than LXRα
EC50 ([1]; read-out: EC50 at LXRα in transcriptional assays): 1500 nM
Structure (SMILES): CCN(c1ccc(C(O)(C(F)(F)F)C(F)(F)F)cc1)S(=O)(=O)c1ccc([N+](=O)[O-])cc1 [OR-1050, N-Ethyl-4-nitro-N-[4-(2,2,2-trifluoro-1-hydroxy-1-trifluoromethyl-ethyl)-phenyl]-benzenesulfonamide]
Cell Frequency (%) Th-1 Protocol IFN-γ^+ [2, 5]: 37.4%
effect on TH1 cell differentiation ([2]; 3 μM): does not inhibit TH1 differentiation

EC50 (mRORγ LBD; [3]): 1.61 µM
EC50 [1, 4]: > 10000 nM
Structure (SMILES): CCn1c(CNc2ccc(Cl)cc2)nnc1SCC(=O)Nc1cccc2ccccc12 [OR-133008, 2-{5-[(4-Chloro-phenylamino)-methyl]-4-ethyl-4H-[1,2,4]triazol-3-ylsulfanyl}-N-naphthalen-1-yl-acetamide]
